Test results reported in US6723723B1, “Heterocyclic derivatives as inhibitors of factor Xa” (AstraZeneca, priority 1999, dated 2004).
Counter-ions that a name gives are not always drawn.

melting point: 186 to 190 °C
Structure (SMILES): O=C(c1ccc(-c2ccncc2)nc1)N1CCN(S(=O)(=O)c2cc3cc(Cl)ccc3[nH]2)CC1 (as salt: hydrochloride) [Example 1, 1-(5-Chloroindol-2-ylsulphonyl)-4-[6-(4-pyridyl)nicotinoyl]piperazine]
